According to PMC10819809 (Microorganisms, 2024):
≈ marks a conversion by molar mass, not a printed value. Square brackets hold non-standard residues; d marks the D form. Peptide text beside a SMILES is read from it.

Tests used:
M. tuberculosis H37Rv [1] = assay type: cell-based, Mycobacterium tuberculosis; set-up: key to Cord Formation at 10 µg/mL, H37Rv: Cord formation like wild type (without peptide) was classified as “normal”; no cord formation was detected, and they were classified as “not observed”; conditions: for Cord Formation at 10 µg/mL, H37Rv: 10 µg/mL peptide, Nikon Ni-E microscope
MTB = conditions: peptide 14D combined with another peptide; clinical trial, 255 samples from adults, routine test; cited from earlier work
MDR-TB = assay type: cell-based, Mycobacterium tuberculosis; set-up: key: Cord formation like wild type (without peptide) was classified as “normal”; no cord formation was detected, and they were classified as “not observed”; conditions: 10 µg/mL peptide; Nikon Ni-E microscope
M. tuberculosis H37Rv [2] = conditions: microdilution broth, 96-well, 2 × 10^5 CFU/mL, 37 °C 14 days, resazurin 48 h; conducted twice with three technical replicates each
M. tuberculosis = assay type: cell-based, Mycobacterium tuberculosis; conditions: for TTP Values at Different Peptide Concentrations, 30 µg/mL: purified peptide 30 µg/mL, MGIT, BD BACTEC MGIT 320, TB alone 12 d 4 h

Compound | Cord Formation at 10 µg/mL, H37Rv (M. tuberculosis H37Rv [1]) | effect on cord formation (M. tuberculosis H37Rv [1]; 1 and 10 µg/mL peptide) | increase in sample positivity rates (MTB) [%] | Cord Formation at 10 µg/mL, MDR-TB (MDR-TB) | MIC in µg/mL, H37Rv (M. tuberculosis H37Rv [2]) [µg/mL] | TTP Values at Different Peptide Concentrations, 30 µg/mL (M. tuberculosis) | reduction of TTP compared to the wild-type peptide 14D (M. tuberculosis; 3 µg/mL purified peptide) [h] | reduction of TTP relative to the untreated control (M. tuberculosis; 3 µg/mL purified peptide) [h] | prolongation of TTP compared to the wild type (M. tuberculosis; 3 µg/mL purified peptide)
CC[C@@H](C)[C@@H](NC(=O)[C@@H](CCCCN)NC(=O)[C@H](N)Cc1c[nH]c2ccccc12)C(=O)N[C@@H](C(=O)N[C@H](Cc1ccccc1)C(=O)N[C@H](Cc1c[nH]c2ccccc12)C(=O)N[C@H](Cc1c[nH]c2ccccc12)C(=O)N[C@H](CCCNC(=N)N)C(=O)N[C@H](CCCNC(=N)N)C(N)=O)C(C)C [peptide 14D] (H-[dW][dK][dI][dV][dF][dW][dW][dR][dR]-NH2) | not observed | diminish cord formation | 46 | not observed | >50 |  |  |  | 
CC[C@@H](C)[C@@H](NC(=O)[C@@H](CCCCN)NC(=O)[C@H](N)Cc1c[nH]c2ccccc12)C(=O)N[C@@H](C(=O)N[C@H](Cc1ccccc1)C(=O)NCC(=O)N[C@H](Cc1c[nH]c2ccccc12)C(=O)N[C@H](CCCNC(=N)N)C(=O)N[C@H](CCCNC(=N)N)C(N)=O)C(C)C [wkivfGwrr] (H-[dW][dK][dI][dV][dF]G[dW][dR][dR]-NH2; N-terminus assumed) | normal |  |  | normal | 20 (≈ 16 µM) | neg (55 d) |  |  | 
NH2-wkivfiwrr-CONH2 [14D, position 6 w substituted by i, C-terminal amidated] |  |  |  |  |  |  | 25 | 56 | 
CC[C@@H](C)[C@@H](NC(=O)[C@@H](CCCCN)NC(=O)[C@H](N)Cc1c[nH]c2ccccc12)C(=O)N[C@H](CO)C(=O)N[C@H](Cc1ccccc1)C(=O)N[C@H](Cc1c[nH]c2ccccc12)C(=O)N[C@H](Cc1c[nH]c2ccccc12)C(=O)N[C@H](CCCNC(=N)N)C(=O)N[C@H](CCCNC(=N)N)C(N)=O [wkisfwwrr] (H-[dW][dK][dI][dS][dF][dW][dW][dR][dR]-NH2; N-terminus assumed) | normal |  |  | normal | 20 (≈ 14.7 µM) |  |  |  | 
CC[C@@H](C)[C@@H](NC(=O)[C@@H](CCCCN)NC(=O)[C@H](N)Cc1c[nH]c2ccccc12)C(=O)N[C@@H](C(=O)N[C@H](Cc1ccccc1)C(=O)N[C@H](CC(=O)O)C(=O)N[C@H](Cc1c[nH]c2ccccc12)C(=O)N[C@H](CCCNC(=N)N)C(=O)N[C@H](CCCNC(=N)N)C(N)=O)C(C)C [wkivfdwrr] (H-[dW][dK][dI][dV][dF][dD][dW][dR][dR]-NH2) | not observed |  |  | not observed | 20 (≈ 15.3 µM) | neg (55 d) |  |  | approximately 22 days
CC[C@@H](C)[C@@H](NC(=O)[C@@H](CCCCN)NC(=O)[C@H](N)Cc1c[nH]c2ccccc12)C(=O)N[C@@H](C(=O)N[C@H](Cc1ccccc1)C(=O)N[C@H](CC(N)=O)C(=O)N[C@H](Cc1c[nH]c2ccccc12)C(=O)N[C@H](CCCNC(=N)N)C(=O)N[C@H](CCCNC(=N)N)C(N)=O)C(C)C [wkivfnwrr] (H-[dW][dK][dI][dV][dF][dN][dW][dR][dR]-NH2; N-terminus assumed) | normal |  |  | normal | 20 (≈ 15.3 µM) |  |  |  | 
